Where two headings read alike, the source gives them in different places. The star is where a group is joined. MeOSuc = COC(=O)CCC(=O)*; CH2Cl = ClC*
Key:
TNF-α convertases = assay: In vitro assays for TNF-α convertase activity (protease inhibitor profile); type: biochemical
Description: For the assay of convertase activity associated with or isolated from membrane preparations, a protein-based assay was carried out essentially as described by Mohler et al., Nature 370:218 (1995).
Briefly, a peptide-tagged recombinant human TNF-α protein substrate (Flag-TNF-α) was cloned and expressed in E. coli. The protein was purified by affinity chromatography using an M2 (anti-Flag)-Sepharose column (Kodak), and by ion exchange chromatography using a BIOCAD equipped with an HQ10 column.
To test for convertase activity, a membrane protein sample (12 μg) was mixed (in 12 μl) with 2 ng of ^125I-polypeptide substrate (approximately 50,000 cpm) in the presence of inhibitors of other proteolytic enzymes [e.g., 200 μM 4-(2-aminoethyl)-benzenesulfonyl fluoride hydrochloride (AEBSF), 2 μM pepstatin, 200 μM leupeptin, 1 mM methoxysuccinyl-Ala-Ala-Pro-Val-chloromethylketone (AAPV)], and with or without 2.5 mM EDTA. Following incubation at 37° C. overnight, samples were fractionated in a 16% sodium dodecylsulfate (SDS) gel and subjected to SDS polyacrylamide gel electrophoresis [SDS-PAGE; Laemmli, Nature 227:680 (1970)]. The gels were dried, and radioactivity was detected by autoradiography.
A polypeptide-based assay for TNF-α convertase activity was also carried out essentially using the method of Mohler et al., supra. Briefly, an amino-terminal dinitrophenylated peptide substrate, amidated at the carboxyl terminus (SEQ ID NO: 4) was synthesized and purified using standard procedures. Dinitrophenylated polypeptides corresponding to cleavage products expected for TNF-α convertase (a dinitrophenylated peptide having the sequence of residues 1-6 of SEQ ID NO: 4) and for other membrane proteases were also synthesized.
To test for convertase activity, a membrane protein sample was mixed in 50 μl with 1 μg peptide substrate in the presence of inhibitors (0.2 mM AEBSF, 2 μM pepstatin, 200 μM leupeptin, 1 mM AAPV). Following incubation at 37° C. for from 60 minutes to overnight, the protein was precipitated by cold 5% trichloroacetic acid (TCA), 20% acetonitrile, and the soluble peptide fraction was applied to a YMC 120 angstrom C-18 ODS-AQ column (4.6×100 mm; YMC, Inc.). The column was eluted isocratically at a flow rate of 1 ml/min using 40% acetonitrile plus 0.06% trifloroacetic acid. The elution of DNP-peptide was monitored at 360 nm using a Waters 625 LC system.

TNF-α secretion [1] = conditions: in vitro; cited from earlier work
TNF-α secretion [2] = conditions: in vivo; cited from earlier work
lethal dose of endotoxin = conditions: mice; cited from earlier work
[3] = general property, concentration not given

Molecule: O[C@H](CS)[C@H](O)CS (racemic) [DTT, dithiothreitol]
- inhibition of TNF-α convertases (TNF-α convertases; [3]): Inhibited

Molecule: CC(C)C[C@H](NC(=O)[C@H]1O[C@@H]1C(=O)O)C(=O)NCCCCN=C(N)N (relative stereo) [E64]
- inhibition of TNF-α convertases (TNF-α convertases; 100 μM): Not inhibited

Molecule: c1cnc2c(c1)ccc1cccnc12 [1,10-phenanthroline]
- inhibition of TNF-α convertases (TNF-α convertases; [3]): Inhibited

Molecule: O=c1oc(Cl)c(Cl)c2ccccc12 [DCI, dichloroisocoumarin]
- inhibition of TNF-α convertases (TNF-α convertases; 100 μM): Not inhibited

Molecule: O=C(O)CN(CCN(CC(=O)O)CC(=O)O)CC(=O)O [EDTA, ethylenediaminetetraacetic acid]
- inhibition of TNF-α convertases (TNF-α convertases; [3]): Inhibited
- band at the position of the 17 kDa human TNF-α cleavage product (SDS-PAGE autoradiography) (TNF-α convertases; membrane protein sample, 125I Flag-TNF-α substrate, with or without 2.5 mM EDTA, 37° C. overnight): intensified bands from the samples incubated without EDTA

Molecule: CNC(=O)[C@H](Cc1ccccc1)NC(=O)[C@H](CC(C)C)[C@H](CSc1ccccc1)C(=O)NO [GI 129471]
- block of TNF-α secretion (TNF-α secretion [1]): block TNF-α secretion
- block of TNF-α secretion (TNF-α secretion [2]): block TNF-α secretion

Molecule: O=C(O)CI [IAA, iodoacetic acid]
- inhibition of TNF-α convertases (TNF-α convertases; 1 mM): Not inhibited

Molecule: CC(C)CC(CC(=O)NO)C(=O)N[C@@H](Cc1ccc2ccccc2c1)C(=O)N[C@@H](C)C(=O)NCCN (stereo partly drawn) [N-{D,L-[2-(hydroxyaminocarbonyl)methyl]-4-methylpentanoyl}L-3-(2′naphthyl)-alanyl-L alanine, 2-aminoethyl amide]
- protection against a lethal dose of endotoxin (lethal dose of endotoxin): protect mice against a lethal dose of endotoxin

Molecule: C[C@H](CS)C(=O)N1CCC[C@H]1C(=O)O [captopril]
- inhibition of TNF-α convertases (TNF-α convertases; 100 μM): Not inhibited

Molecule: CC(C)C[C@H](NP(=O)(O)O[C@@H]1O[C@@H](C)[C@H](O)[C@@H](O)[C@H]1O)C(=O)N[C@@H](Cc1c[nH]c2ccccc12)C(=O)O [phosphoramidon]
- inhibition of TNF-α convertases (TNF-α convertases; 300 μM): Not inhibited

Molecule: O=C(O)CNC(=O)C(CS)Cc1ccccc1 (centres unmarked) [thiorphan]
- inhibition of TNF-α convertases (TNF-α convertases; 100 μM): Not inhibited

Molecule: TIMP-1: tissue inhibitor of metalloproteases-1
- inhibition of TNF-α convertases (TNF-α convertases; 1 μg/ml): Not inhibited

Molecule: methoxysuccinyl-Ala-Ala-Pro-Val-chloromethylketone (MeOSuc-AAPV-CH2Cl)
- inhibition of TNF-α convertases (TNF-α convertases; 1 mM): Not inhibited

Molecule: α-2 macroglobulin: protein protease inhibitor
- inhibition of TNF-α convertases (TNF-α convertases; [3]): Inhibited

B1: SBTI: soybean trypsin inhibitor (protein, UniProt P01070 25-205, looked up)
Trypsin inhibitor A: DFVLDNEGNPLENGGTYYILSDITAFGGIRAAPTGNERCPLTVVQSRNELDKGIGTIISSPYRIRFIAEGHPLSLKFDSFAVIMLCVGIPTEWSVVEDLPEGPAVKIGENKDAMDGWFRLERVSDDEFNNYKLVFCPQQAEDDKCGDIGISIDHDDGTRRLVVSKNKPLVVQFQKLDKESL
- inhibition of TNF-α convertases (TNF-α convertases; 1 μg/ml): Not inhibited

Reference: patent US7358352B2, “Nucleic acids encoding human TNF-α convertase” (Schering Corporation, priority 1996, dated 2008)
